Legend:
Format in all cases: in vivo
Alternaria solani = experiment: Alternaria solani/Tomato/Preventive (action against Alternaria on tomato); conditions: 96 h, preventive spray, tomato plants cv. Roter Gnom, assessed 4 days after inoculation, read-out: inhibit fungal infestation
Description: Alternaria solani/Tomato/Preventive (Action Against Alternaria on Tomato) 4 weeks old tomato plants cv. Roter Gnom are treated with the formulated test compound in a spray chamber. Two days after application tomato plants are inoculated by spraying a spore suspension on the test plants. After an incubation period of 4 days at 22° C./18° C. and 95% r. h. in a greenhouse the disease incidence is assessed.

[1] = test system: Pyrenophora teres (Helminthosporium teres); experiment: Pyrenophora teres (Helminthosporium teres)/Barley/Preventive (action against net blotch on barley); conditions: 96 h, preventive spray, barley plants cv. Regina, assessed 4 days after inoculation, read-out: inhibit fungal infestation
Description: Pyrenophora teres (Helminthosporium teres)/Barley/Preventive (Action Against Net Blotch on Barley) 1-week-old barley plants cv. Regina are treated with the formulated test compound in a spray chamber. Two days after application barley plants are inoculated by spraying a spore suspension (2.6×10^4 conidia/ml) on the test plants. After an incubation period of 4 days at 20° C. and 95% r. h. the disease incidence is assessed.

Septoria tritici = experiment: Septoria tritici/Wheat/Preventive (action against Septoria leaf spot on wheat); conditions: Zymoseptoria tritici, preventive spray, wheat plants cv. Riband, assessed 16-18 days after inoculation, read-out: inhibit fungal infestation
Description: Septoria tritici/Wheat/Preventive (Action Against Septoria Leaf Spot on Wheat) 2 weeks old wheat plants cv. Riband are treated with the formulated test compound in a spray chamber. One day after application wheat plants are inoculated by spraying a spore suspension (10^6 conidia/ml) on the test plants. After an incubation period of 1 day at 22° C./21° C. and 95% r. h. plants are kept at 22° C./21° C. and 70% r.h. in a greenhouse. The disease incidence is assessed 16-18 days after inoculation.

Botrytis cinerea = experiment: Botrytis cinerea/Tomato/Preventive (action against Botrytis on tomato); conditions: 72 h, preventive spray, tomato plants cv. Roter Gnom, assessed 3 days after inoculation, read-out: inhibit fungal infestation
Description: Botrytis cinerea/Tomato/Preventive (Action Against Botrytis on Tomato) 4 weeks old tomato plants cv. Roter Gnom are treated with the formulated test compound in a spray chamber. Two days after application tomato plants are inoculated by spraying a spore suspension on the test plants. After an incubation period of 3 days at 20° C. and 95% r. h. in a greenhouse the disease incidence is assessed.

[2] = test system: Magnaporthe grisea (Pyricularia oryzae); experiment: whole plant or invertebrate; conditions: 144 h, read-out: inhibit fungal infestation
Uncinula necator = experiment: Uncinula necator/Grape/Preventive (action against powdery mildew on grape); conditions: Erysiphe necator, 168 h, preventive spray, grape seedlings cv. Gutedel, assessed 7 days after inoculation, read-out: inhibit fungal infestation
Description: Uncinula necator/Grape/Preventive (Action Against Powdery Mildew on Grape) 5 weeks old grape seedlings cv. Gutedel are treated with the formulated test compound in a spray chamber. One day after application grape plants are inoculated by shaking plants infected with grape powdery mildew above the test plants. After an incubation period of 7 days at 24° C./22° C. and 70% r. h. under a light regime of 14/10 h (light/dark) the disease incidence is assessed.

Puccinia recondita = experiment: Puccinia recondita/Wheat/Preventive (action against brown rust on wheat); conditions: 264 h, preventive spray, wheat plants cv. Arina, assessed 11 days after inoculation, read-out: inhibit fungal infestation
Description: Puccinia recondita/Wheat/Preventive (Action Against Brown Rust on Wheat) 1 week old wheat plants cv. Arina are treated with the formulated test compound in a spray chamber. One day after application wheat plants are inoculated by spraying a spore suspension ([…] uredospores/ml) on the test plants. After an incubation period of 1 day at 20° C. and 95% r. h. plants are kept for 10 days 20° C./18° C. (day/night) and 60% r.h. in a greenhouse. The disease incidence is assessed 11 days after inoculation.

Measured: inhibition at 200 ppm

Fc1cc(F)c(-c2c(Cl)nc(Cl)n2-c2ccc(Cl)nc2)c(F)c1 [I.j.209, 2-Chloro-5-[2,4-dichloro-5-(2,4,6-trifluoro-phenyl)-imidazol-1-yl]-pyridine]
not listed: Uncinula necator | Puccinia recondita
≥ 80%: all other assays above

Cc1nc(Cl)c(-c2c(F)cc(F)cc2F)n1-c1ccc(Cl)nc1 [I.j.210, 2-Chloro-5-[4-chloro-2-methyl-5-(2,4,6-trifluoro-phenyl)-imidazol-1-yl]-pyridine]
≥ 80%: all assays above

Cc1ccc(-n2c(C)nc(Cl)c2-c2c(F)cc(F)cc2F)cn1 [I.j.225, 5-[4-Chloro-2-methyl-5-(2,4,6-trifluoro-phenyl)-imidazol-1-yl]-2-methyl-pyridine]
≥ 80%: Uncinula necator | Alternaria solani | Septoria tritici | [2]

Fc1cc(F)c(-c2c(Cl)nc(Cl)n2-c2cnc3ccccc3c2)c(F)c1 [I.j.269, 3-[2,4-dichloro-5-(2,4,6-trifluoro-phenyl)-imidazol-1-yl]-quinoline]
≥ 80%: Uncinula necator | Alternaria solani | [1] | Septoria tritici

Cc1nc(Cl)c(-c2c(F)cc(F)cc2F)n1-c1cnc2ccccc2c1 [I.j.270, 3-[4-chloro-2-methyl-5-(2,4,6-trifluoro-phenyl)-imidazol-1-yl]-quinoline]
≥ 80%: all assays above

COc1cc(F)c(-c2c(Cl)nc(C)n2-c2ccc(Cl)nc2)c(F)c1 [I.m.210, 2-Chloro-5-[4-chloro-5-(2,6-difluoro-4-methoxy-phenyl)-2-methyl-imidazol-1-yl]-pyridine]
≥ 80%: all assays above

COc1cc(F)c(-c2c(Cl)nc(C)n2-c2ccc(OC)nc2)c(F)c1 [I.m.220, 5-[4-Chloro-5-(2,6-difluoro-4-methoxy-phenyl)-2-methyl-imidazol-1-yl]-2-methoxy-pyridine]
≥ 80%: all assays above

COc1cc(F)c(-c2c(Cl)nc(C)n2-c2ccc(C)nc2)c(F)c1 [I.m.225, 5-[4-Chloro-5-(2,6-difluoro-4-methoxy-phenyl)-2-methyl-imidazol-1-yl]-2-methyl-pyridine]
≥ 80%: all assays above

From patent US20110311649A1, “NOVEL IMIDAZOLE DERIVATIVES” (SYNGENTA CROP PROTECTION, INC., priority 2007, published 2011)
